Among the data in BindingDB's records for doi:10.7270/Q2B856NC (Burnham Center For Chemical Genomics, 2011) are IC50 values, retold here.

The test has as its target T1, Apelin receptor (Homo sapiens, UniProt P35414).
T1 sequence (P35414 whole entry): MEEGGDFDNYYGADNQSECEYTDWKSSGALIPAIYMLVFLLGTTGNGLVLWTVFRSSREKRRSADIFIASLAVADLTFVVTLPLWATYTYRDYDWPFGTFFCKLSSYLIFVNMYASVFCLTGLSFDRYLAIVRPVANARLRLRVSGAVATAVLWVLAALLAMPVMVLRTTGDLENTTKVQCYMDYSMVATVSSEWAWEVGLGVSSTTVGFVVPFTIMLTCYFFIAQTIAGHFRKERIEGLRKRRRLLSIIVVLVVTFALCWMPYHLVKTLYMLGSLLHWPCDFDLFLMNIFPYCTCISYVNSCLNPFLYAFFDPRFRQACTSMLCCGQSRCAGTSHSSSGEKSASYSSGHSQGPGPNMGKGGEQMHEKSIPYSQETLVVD
Briefly: apelin receptor antagonists, arrestin read-out – cell-based, luminescent, enzyme-fragment complementation, selectivity assay for CCR6 antagonist project, SAR follow-up (AID 588359).
As usually defined, the IC50 is the midpoint of a concentration-inhibition curve. Regarding `CC(N=Nc1ccc2ccccc2n1)c1ccccc1O` (stereo not drawn) [(6Z)-6-[1-[N'-(2-quinolyl)hydrazino]ethylidene]cyclohexa-2,4-dien-1-one], the IC50 is 4.12 µM.
Then `CN1C(=O)C(C2CC(c3ccc(Cl)cc3)N=N2)C(=O)N(C)C1=O` (stereo not drawn) [SMR000439471], with 7.22 µM.
With `OCC12C=CC(O1)c1c2c(O)n(-c2ccccc2-c2ccccc2)c1O` (stereo not drawn) [7-(hydroxymethyl)-2-(2-phenylphenyl)-4,7a-dihydro-3aH-octahydro-1H-4,7-epoxyisoindole-1,3-dione], the IC50 was more than 66.6 µM.
